# Reference: US7276527B2, “5-pyridyl-1,3-azole compounds, process for producing the same and use thereof” (Takeda Pharmaceutical Company Limited, priority 1999, dated 2007)
# Biological target: T1, human adenosine A3 receptor (Homo sapiens, UniProt P0DMS8)
# T1 construct: expressed in transfected cells; membrane fraction
# T1 sequence (P0DMS8 1-318): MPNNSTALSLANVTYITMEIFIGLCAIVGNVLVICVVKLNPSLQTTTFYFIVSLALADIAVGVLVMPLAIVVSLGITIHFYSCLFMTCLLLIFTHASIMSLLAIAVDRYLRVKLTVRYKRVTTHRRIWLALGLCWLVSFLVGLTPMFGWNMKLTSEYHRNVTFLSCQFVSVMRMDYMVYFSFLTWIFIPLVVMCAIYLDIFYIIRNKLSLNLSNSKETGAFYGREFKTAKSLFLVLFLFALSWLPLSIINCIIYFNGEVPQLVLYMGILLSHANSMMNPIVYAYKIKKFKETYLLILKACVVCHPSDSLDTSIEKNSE
# Test: Adenosine A3 receptor binding test
# Conditions: membrane fraction of A3AR/CHO strain, [3H]-NECA 10 nM, room temperature 1 hour; read-out: IC50 (concentration necessary for decreasing an amount of binding of [3H]-NECA to the membrane fraction by 50%)
# Method: Genetic procedures were according to a method described in Molecular Cloning, published by Cold Spring Harbor, Laboratory, 1989 or a method described in the attached protocol of the reagent.
# 1) Cloning of Human Adenosine A3 Receptor
# Cloning of an adenosine A3 receptor gene was performed from human brain cDNA by a PCR method. A PCR reaction was performed with a DNA thermal cycler 480 (Perkin Elmer) by using 1 ng of brain cDNA (Toyobo, QUICK-Clone cDNA) as a template, adding each 50 pmol of a primer set 5′-[…]-3′ (SEQ ID NO: 1) and 5′-[…]-3′ (SEQ ID NO: 2) made by reference to adenosine A3 receptor gene base sequence reported by Salvatore et al. (Proc. Natl. Acad. Sci. U.S.A., 90:10365-10369, 1993) and employing Takara LA PCR Kit Ver. 2 (Takara Shuzo) (reaction conditions: 35 cycles of 1 minute at 95° C., 1 minute at 66° C., 2 minutes at 75° C.). The resulting PCR product was subjected to agarose gel electrophoresis and 1.0 kb of DNA fragment was recovered and, thereafter, an adenosine A3 receptor gene was cloned using Original TA Cloning Kit (Funakoshi).
# Next, the resulting plasmid was digested with a restriction enzyme XbaI (Takara Shuzo), treated with T4 DNA polymerase (Takara Shuzo) into end-blunted fragments and further digested with SalI (Takara Shuzo) to obtain adenosine A3 receptor gene fragments.
# 2) Preparation of a Plasmid for Expressing of Human Adenosine A3 Receptor […]
row,SMILES,IC50 [nM]
1,"Cc1cc(C)cc(-c2nc(N)sc2-c2ccnc(OCc3ccccc3)c2)c1 [Example 1, [4-(3,5-dimethylphenyl)-5-(2-phenylmethyloxy-4-pyridyl)-1,3-thiazol-2-yl]amine]",11.6

# Test system: TNF-α production in THP-1 cells
# Test: Measurement of inhibiting activity of TNF-α production
# Format: cell-based
# Conditions: Homo sapiens, LPS 5 μg/mL, 4 hours, TNF-α in supernatant by ELISA, read-out: IC50 (concentration necessary for inhibiting TNF-α production by 50%)
# Method: Measurement of Inhibiting Activity of TNF-α Production
# After THP-1 cells which had been cultured on PRMI 1640 medium (manufactured by Life Technologies, Inc.) containing 1% non-activated bovine fetal serum (manufactured by Life Technologies, Inc., U.S.A.) and 10 mM HEPES (pH 7.5) seeded on a 96-well plate to 1×10^5 cells/well, 1 μL test compound dissolved in DMSO was added to there. After incubation at 37° C. for 1 hour in a CO2 incubator, LPS (Wako Pure Chemicals) was added to the final concentration 5 μg/mL. After cultured at 37° C. for 4 hours in a CO2 incubator, the supernatant was obtained by centrifugation. The concentration of TNF-α in the supernatant was measured with ELISA (R&D System, Quantikine Kit). The concentration (IC50 value) necessary for inhibiting TNF-α production by 50% was calculated by PRIMS 2.01 (Graphpad Software).
row,SMILES,IC50 [nM]
1,"COc1ccc(-c2nc(NC(=O)c3cccnc3)sc2-c2ccnc(NC(=O)c3cccnc3)c2)cc1 [Example 3, N-[4-(4-methoxypheny)-5-[2-[(3-pyridylcarbonylamino)]-4-pyridyl]-1,3-thiazol-2-yl]nicotinamide]",26
2,"COc1ccc(-c2nc(N)sc2-c2ccnc(NC(=O)c3ccccc3)c2)cc1 [Example 4, N-[4-[2-amino-4-(4-methoxyphenyl)-1,3-thiazol-5-yl]-2-pyridyl]benzamide]",14
3,"Cc1cc(C)cc(-c2nc(N)sc2-c2ccnc(NCc3ccccc3)c2)c1 [Example 6, N-[4-[2-amino-4-(3,5-dimethylphenyl)-1,3-thiazol-5-yl]-2-pyridyl]benzylamine]",140

# Test system: not given
# Test: not given
# Conditions: not given
row,SMILES,melting point [°C]
1,"Cc1cccc(-c2nc(-c3ccc(S(C)(=O)=O)cc3)sc2-c2ccnc(NC(=O)c3ccc4ccccc4c3)c2)c1 [Example Compound 21-4, N-[4-[4-(3-methylphenyl)-2-(4-methylsulfonylphenyl)-1,3-thiazol-5-yl]-2-pyridyl]-2-naphthamide]",231 to 233
2,"Cc1cccc(-c2nc(-c3ccc(S(C)(=O)=O)cc3)sc2-c2ccnc(NCCCc3ccccc3)c2)c1 [Example Compound 21-6, N-[4-[4-(3-methylphenyl)-2-(4-methylsulfonylphenyl)-1,3-thiazol-5-yl]-2-pyridyl]-N-(3-phenylpropyl) amine]",167 to 168
3,"Cc1cccc(-c2nc(-c3ccc(S(C)(=O)=O)cc3)sc2-c2ccnc(NCc3ccc4ccccc4c3)c2)c1 [Example Compound 21-7, N-[4-[4-(3-methylphenyl)-2-(4-methylsulfonylphenyl)-1,3-thiazol-5-yl]-2-pyridyl]-N-(2-naphthylmethyl)amine]",167 to 168
4,"COc1ccc(CNc2cc(-c3sc(N)nc3-c3cccc(C)c3)ccn2)cc1 [Example Compound 23-1, N-[4-[2-amino-4-(3-methylphenyl)-1,3-thiazol-5-yl]-2-pyridyl]-N-(4-methoxybenzyl)amine]",183 to 184
5,"COc1cccc(CNc2cc(-c3sc(N)nc3-c3cccc(C)c3)ccn2)c1 [Example Compound 23-2, N-[4-[2-amino-4-(3-methylphenyl)-1,3-thiazol-5-yl]-2-pyridyl]-N-(3-methoxybenzyl)amine]",152 to 154
6,"COc1ccccc1CNc1cc(-c2sc(N)nc2-c2cccc(C)c2)ccn1 [Example Compound 23-3, N-[4-[2-amino-4-(3-methylphenyl)-1,3-thiazol-5-yl]-2-pyridyl]-N-(2-methoxybenzyl)amine]",158 to 159
7,"Cc1cccc(-c2nc(N)sc2-c2ccnc(NCc3ccc(Cl)cc3)c2)c1 [Example Compound 23-4, N-[4-[2-amino-4-(3-methylphenyl)-1,3-thiazol-5-yl]-2-pyridyl]-N-(4-chlorobenzyl)amine]",182 to 183
8,"Cc1cccc(-c2nc(N)sc2-c2ccnc(NCc3cccc(Cl)c3)c2)c1 [Example Compound 23-5, N-[4-[2-amino-4-(3-methylphenyl)-1,3-thiazol-5-yl]-2-pyridyl]-N-(3-chlorobenzyl)amine]",180 to 181
9,"Cc1cccc(-c2nc(N)sc2-c2ccnc(N[C@H](C)c3ccccc3)c2)c1 [Example Compound 23-6, (R)-N-[4-[2-amino-4-(3-methylphenyl)-1,3-thiazol-5-yl]-2-pyridyl]-N-(1-phenylethyl)amine]",94 to 98
10,"Cc1cccc(-c2nc(N)sc2-c2ccnc(N[C@@H](C)c3ccccc3)c2)c1 [Example Compound 23-7, (S)-N-[4-[2-amino-4-(3-methylphenyl)-1,3-thiazol-5-yl]-2-pyridyl]-N-(1-phenylethyl)amine]",93 to 96
11,"Cc1cccc(-c2nc(N)sc2-c2ccnc(N(C)Cc3ccccc3)c2)c1 [Example Compound 23-8, N-[4-[2-amino-4-(3-methylphenyl)-1,3-thiazol-5-yl]-2-pyridyl]-N-benzyl-N-methylamine]",138 to 140
12,"COc1cccc(-c2nc(N)sc2-c2ccnc(NCc3ccccc3)c2)c1 [Example Compound 24, N-[4-[2-amino-4-(3-methoxyphenyl)-1,3-thiazol-5-yl]-2-pyridyl]-N-benzylamine]",217 to 218
13,"Cc1cccc(-c2nc(-c3ccc(S(C)(=O)=O)cc3)sc2-c2ccnc(NCc3ccc(F)cc3)c2)c1 [Example Compound 25-2, N-(4-fluorobenzyl)-N-[4-[4-(3-methylphenyl)-2-(4-methylsulfonylphenyl)-1,3-thiazol-5-yl]-2-pyridyl]amine]",155 to 158
14,"Cc1cccc(-c2nc(-c3ccc(S(C)(=O)=O)cc3)sc2-c2ccnc(N(C)Cc3ccccc3)c2)c1 [Example Compound 25-3, N-benzyl-N-methyl-N-[4-[4-(3-methylphenyl)-2-(4-methylsulfonylphenyl)-1,3-thiazol-5-yl]-2-pyridyl]amine]",165 to 166
15,"Cc1cccc(-c2nc(-c3ccc(S(C)(=O)=O)cc3)sc2-c2ccnc(N(C)CCc3ccccc3)c2)c1 [Example Compound 25-4, N-methyl-N-[4-[4-(3-methylphenyl)-2-(4-methylsulfonylphenyl)-1,3-thiazol-5-yl]-2-pyridyl]-N-(2-phenylethyl)amine]",116 to 117
16,"Cc1cccc(-c2nc(-c3ccc(S(C)(=O)=O)cc3)sc2-c2ccnc(NCc3cccs3)c2)c1 [Example Compound 25-5, N-[4-[4-(3-methylphenyl)-2-(4-methylsulfonylphenyl)-1,3-thiazol-5-yl]-2-pyridyl]-N-(2-thienylmethyl)amine]",107 to 109
